SMILES strings stand for the structures. Calls of active or inactive are those of the source. The rule behind the calls is not given here. A value given as a limit tells only on which side of the number the result lay.

The target of the assay is Chaperone protein DnaK (Escherichia coli (strain K12)) (UniProt P0A6Y8). Kind of assay: E. coli DnaK SBD ligand binding – biophysical, NMR, chaperone (AID 1033). The conditions noted are these: Purified DnaK SBD.
Chain of Chaperone protein DnaK (Escherichia coli (strain K12)) (P0A6Y8 whole entry, looked up): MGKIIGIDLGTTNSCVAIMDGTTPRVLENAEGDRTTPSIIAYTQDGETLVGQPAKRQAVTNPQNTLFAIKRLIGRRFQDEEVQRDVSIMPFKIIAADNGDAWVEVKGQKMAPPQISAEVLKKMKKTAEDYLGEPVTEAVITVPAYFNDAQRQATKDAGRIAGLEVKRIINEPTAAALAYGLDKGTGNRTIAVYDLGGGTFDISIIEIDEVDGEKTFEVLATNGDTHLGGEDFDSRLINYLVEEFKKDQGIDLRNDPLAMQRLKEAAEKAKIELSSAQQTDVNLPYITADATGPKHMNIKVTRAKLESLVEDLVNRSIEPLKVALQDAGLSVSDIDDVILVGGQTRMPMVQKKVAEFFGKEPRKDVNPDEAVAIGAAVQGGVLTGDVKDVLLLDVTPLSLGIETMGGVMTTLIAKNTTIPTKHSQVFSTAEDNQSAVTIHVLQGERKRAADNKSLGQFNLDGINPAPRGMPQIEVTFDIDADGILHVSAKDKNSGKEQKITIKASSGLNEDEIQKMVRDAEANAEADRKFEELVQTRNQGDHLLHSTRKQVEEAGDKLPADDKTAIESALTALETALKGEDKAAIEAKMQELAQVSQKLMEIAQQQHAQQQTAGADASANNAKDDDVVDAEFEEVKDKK
For the compound `CC(C)c1c(O)ccc2c1CCC1[C@@](C)(C=O)CCC[C@]21C` (stereo partly drawn), the Kd was > 4 mM (inactive).
The same measure for `CC(C)(O)[C@@H]1[C@H]2OC(=O)[C@@H]1[C@]1(O)C[C@H]3O[C@]34C(=O)O[C@H]2[C@]14C`: > 4 mM (inactive).
As for `CS(=O)(=O)c1ccc2nc(N)sc2c1`, the Kd is > 4 mM (inactive).
Regarding `CC(=O)Nc1cccc(-c2nnc(-c3ccccc3)o2)c1`, the Kd was > 4 mM (inactive).
Take `CC1(C)N=C2C(=[N+]1[O-])CCC/C2=N\O`: the Kd is > 4 mM (inactive).
Turning to `c1coc(-c2nc(-c3ccncc3)no2)c1`, the Kd is > 4 mM (inactive).
The same measure for `Cc1ccc(-n2cnnn2)c2cccnc12`: > 4 mM (inactive); for `CC1(C)NCCN2C(=O)CSC21` (stereo not drawn): > 4 mM (inactive).
Turning to `CC(=O)N1CCc2ccccc2C1CC(=O)O` (stereo not drawn), the Kd is > 4 mM (inactive).
The value for `O=C(O)C1CC(=O)N(Cc2cccs2)C1` (stereo not drawn) was > 4 mM (inactive); that for `COc1cc2nc(N3CCNCC3)nc(N)c2cc1OC` was > 4 mM (inactive); that for `C[C@H]1O[C@@H](O[C@H]2[C@@H](O)C[C@H](O[C@H]3[C@@H](O)C[C@H](O[C@H]4CC[C@]5(C)C6CC[C@]7(C)[C@@H](C8=CC(=O)OC8)CC[C@]7(O)C6CC[C@@H]5C4)O[C@@H]3C)O[C@@H]2C)C[C@H](O)[C@@H]1O` (stereo partly drawn) was > 4 mM (inactive).
Take `c1nnc2c3c4c(sc3ncn12)CCCC4`: the Kd is > 4 mM (inactive).
Take `CN(C)C(=S)Nc1nc2ccccc2s1`: the Kd was > 4 mM (inactive).
The value for `Nc1nnc(SCc2ccc(F)cc2Cl)s1` was > 4 mM (inactive); that for `CCn1cnc2cc([N+](=O)[O-])ccc2c1=O` was > 4 mM (inactive); that for `NC(=O)Cn1cnc2ccccc21` was > 4 mM (inactive).
With `O=C(c1cccc(-n2cnnn2)c1)N1CCOCC1`, the Kd was > 4 mM (inactive).
The same measure for `O=C(O)c1ccc2c(c1)OCCCO2`: > 4 mM (inactive); for `Cc1cc(-c2ccccc2)nc2cc(C(N)=O)nn12`: > 4 mM (inactive).
The same measure for `O=C(Nc1cccc(Cl)c1)c1cnn2cccnc12`: > 4 mM (inactive).
With `Cc1c(N=Cc2ccco2)c(=O)n(-c2ccccc2)n1C`, the Kd is > 4 mM (inactive).
`CC(=O)O[C@@H]1C=C[C@@]2(C)C(C[C@@H](OC(C)=O)[C@@]3(C)C4=CC(=O)O[C@@H](c5ccoc5)[C@]4(C)CCC23)C1(C)C` (stereo partly drawn): the Kd is > 4 mM (inactive).
Regarding `CC(C)CCCC(C)C1CCC2C3C[C@@H](O)[C@@]4(O)C[C@@H](O)CC[C@]4(C)C3CC[C@]12C` (stereo partly drawn), the Kd is > 4 mM (inactive).
The value for `CCc1cc(=O)[nH]c(SCC(=O)NCCOC)n1` was > 4 mM (inactive).
The same measure for `CC1(C)Cc2nc3[nH]c(=S)[nH]c(=O)c3cc2CO1`: > 4 mM (inactive).
Take `C/C=C/C=N/NC(=O)c1ccc(=O)n(C)c1`: the Kd was > 4 mM (inactive).
The value for `O=C1CNCc2[nH]c3ccccc3c2N1c1ccccc1` was > 4 mM (inactive); that for `Cc1ccc(C(=O)Nn2cnnc2)c(Cl)c1` was > 4 mM (inactive).
The same measure for `Cn1cnc2c(cnn2-c2ccccc2)c1=O`: > 4 mM (inactive); for `O=C1COc2ccc(C(=O)c3ccccc3)cc2CN1`: > 4 mM (inactive).
`O=C(O[C@@H]1Cc2c(O)cc(O)cc2O[C@@H]1c1ccc(O)c(O)c1)c1cc(O)c(O)c(O)c1`: the Kd is > 4 mM (inactive).
For the compound `Nc1ccc(Cl)nn1`, the Kd was > 4 mM (inactive).

What is called Kd is the concentration at which binding is half-saturated.
